Experimental data from US20140288052A1, “SUBSTITUTED BICYCLIC AZA-HETEROCYCLES AND ANALOGUES AS SIRTUIN MODULATORS” (GlaxoSmithKline, LLC, priority 2011, published 2014).

Assays:
SIRT1 [1] = target: T1, SIRT1 (Homo sapiens, UniProt Q96EB6); assay: TAMRA based mass spectrometry assay of SIRT1 deacetylase activation; type: biochemical; settings: TAMRA peptide substrate; for TAMRA EC1.5 (μM): concentration that results in 150% activation of SIRT1; for TAMRA % Fold Act: percent maximum fold activation relative to control (100%)
T1 sequence (Q96EB6 1-747): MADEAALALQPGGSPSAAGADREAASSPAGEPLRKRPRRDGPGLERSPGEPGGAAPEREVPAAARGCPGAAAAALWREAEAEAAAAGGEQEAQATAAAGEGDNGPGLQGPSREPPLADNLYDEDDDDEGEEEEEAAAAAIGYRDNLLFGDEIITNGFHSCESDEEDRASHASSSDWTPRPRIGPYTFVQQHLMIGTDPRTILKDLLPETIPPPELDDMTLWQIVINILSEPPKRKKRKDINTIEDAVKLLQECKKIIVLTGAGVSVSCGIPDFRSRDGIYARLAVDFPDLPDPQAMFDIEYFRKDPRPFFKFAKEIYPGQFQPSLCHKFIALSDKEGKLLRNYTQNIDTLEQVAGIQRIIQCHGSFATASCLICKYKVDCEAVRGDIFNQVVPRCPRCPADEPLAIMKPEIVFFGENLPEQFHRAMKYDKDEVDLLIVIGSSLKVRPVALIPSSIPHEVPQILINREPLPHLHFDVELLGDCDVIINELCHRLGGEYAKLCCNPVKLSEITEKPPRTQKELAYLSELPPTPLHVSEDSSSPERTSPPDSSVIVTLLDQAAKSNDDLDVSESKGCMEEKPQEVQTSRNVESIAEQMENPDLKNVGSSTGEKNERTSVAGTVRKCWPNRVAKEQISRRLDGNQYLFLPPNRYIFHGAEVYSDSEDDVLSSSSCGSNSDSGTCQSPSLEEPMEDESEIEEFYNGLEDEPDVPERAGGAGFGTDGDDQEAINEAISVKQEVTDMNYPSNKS
Description: (§1) Mass spectrometry based assays were used to identify modulators of SIRT1 activity. The TAMRA based assay utilized a peptide having 20 amino acid residues as follows: Ac-EE-K(biotin)-GQSTSSHSK(Ac)NleSTEG-K(5TMR)-EE-NH2 (SEQ ID NO: 1), wherein K(Ac) is an acetylated lysine residue and Nle is a norleucine. The peptide was labeled with the fluorophore 5TMR (excitation 540 nm/emission 580 nm) at the C-terminus. The sequence of the peptide substrate was based on p53 with several modifications. In addition, the methionine residue naturally present in the sequence was replaced with the norleucine because the methionine may be susceptible to oxidation during synthesis and purification. The Trp based assay utilized a peptide having an amino acid residues as follows: Ac-R-H-K-K(Ac)-W-NH2 (SEQ ID NO: 2).
The TAMRA based mass spectrometry assay was conducted as follows: 0.5 μM peptide substrate and 120 μM βNAD^+ was incubated with 10 nM SIRT1 for 25 minutes at 25° C. in a reaction buffer (50 mM Tris-acetate pH 8, 137 mM NaCl, 2.7 mM KCl, 1 mM MgCl2, 5 mM DTT, 0.05% BSA). The SIRT1 protein was obtained by cloning the SirT1 gene into a T7-promoter containing vector, which was then transformed and expressed in BL21(DE3) bacterial cells. Test compound was added at varying concentrations to this reaction mixture and the resulting reactions were monitored. After the 25 minute incubation with SIRT1, 10 μL of 10% formic acid was added to stop the reaction. The resulting reactions were sealed and frozen for later mass spec analysis. Determination of the amount of deacetylated substrate peptide formed (or, alternatively, the amount of O-acetyl-ADP-ribose (OAADPR) generated) by the sirtuin-mediated NAD-dependent deacetylation reaction allowed for the precise measurement of relative SIRT1 activity in the presence of varying concentrations of the test compound versus control reactions lacking the test compound.
(§2) A control for inhibition of sirtuin activity was conducted by adding 1 μL of 500 mM nicotinamide as a negative control at the start of the reaction (e.g., permits determination of maximum sirtuin inhibition). A control for activation of sirtuin activity was conducted using 10 nM of sirtuin protein, with 1 μL of DMSO in place of compound, to determine the amount of deacetylation of the substrate at a given time point within the linear range of the assay. This time point was the same as that used for test compounds and, within the linear range, the endpoint represents a change in velocity. For the above assay, SIRT1 protein was expressed and purified as follows. The SirT1 gene was cloned into a T7-promoter containing vector and transformed into BL21(DE3). The protein was expressed by induction with 1 mM IPTG as an N-terminal His-tag fusion protein at 18° C. overnight and harvested at 30,000×g. Cells were lysed with lysozyme in lysis buffer (50 mM Tris-HCl, 2 mM Tris[2-carboxyethyl] phosphine (TCEP), 10 μM ZnCl2, 200 mM NaCl) and further treated with sonication for 10 min for complete lysis. The protein was purified over a Ni-NTA column (Amersham) and fractions containing pure protein were pooled, concentrated and run over a sizing column (Sephadex S200 26/60 global). The peak containing soluble protein was collected and run on an Ion-exchange column (MonoQ). Gradient elution (200 mM-500 mM NaCl) yielded pure protein. This protein was concentrated and dialyzed against dialysis buffer (20 mM Tris-HCl, 2 mM TCEP) overnight. The protein was aliquoted and frozen at −80° C. until further use.
Sirtuin-modulating compounds of Formula (I) that activated SIRT1 were identified using the assay described above and are shown below in Table 1. The EC1.5 values represent the concentration of test compounds that result in 150% activation of SIRT1. The EC1.5 values for the activating compounds of Formula (I) are represented by A (EC1.5<1 μM), B (EC1.5 1−25 μM), C (EC1.5>25 μM). […]

SIRT1 [2] = target: T1, SIRT1; assay: Trp mass spectrometry assay of SIRT1 deacetylase activation; type: biochemical; settings: Trp peptide substrate; for TRP EC1.5 (μM): concentration that results in 150% activation of SIRT1; for TRP % Fold Act: percent maximum fold activation relative to control (100%)
Description: as §1
The Trp mass spectrometry assay was conducted as follows. 0.5 μM peptide substrate and 120 μM βNAD^+ were incubated with 10 nM SIRT1 for 25 minutes at 25° C. in a reaction buffer (50 mM HEPES pH 7.5, […], 1 mM DTT, 0.05% BSA). The SIRT1 protein was obtained by cloning the SirT1 gene into a T7-promoter containing vector, which was then expressed in BL21(DE3) bacterial cells and purified as described in further detail below. Test compound was added at varying concentrations to this reaction mixture and the resulting reactions were monitored. After the 25 minute incubation with SIRT1, 10 μL of 10% formic acid was added to stop the reaction. The resulting reactions were sealed and frozen for later mass spec analysis. The relative SIRT1 activity was then determined by measuring the amount of O-acetyl-ADP-ribose (OAADPR) formed (or, alternatively, the amount of deacetylated Trp peptide generated) by the NAD-dependent sirtuin deacetylation reaction in the presence of varying concentrations of the test compound versus control reactions lacking the test compound. The degree to which the test agent activated deacetylation by SIRT1 was expressed as EC1.5 (i.e., the concentration of compound required to increase SIRT1 activity by 50% over the control lacking test compound), and Percent Maximum Activation (i.e., the maximum activity relative to control (100%) obtained for the test compound).
as §2
Sirtuin-modulating compounds of Formula (I) that activated SIRT1 were identified using the assay described above and are shown below in Table 1. […]

Row | SMILES | TAMRA EC1.5 (μM) (SIRT1 [1]) | TAMRA % Fold Act (SIRT1 [1]) | TRP EC1.5 (μM) (SIRT1 [2]) | TRP % Fold Act (SIRT1 [2])
1 | Cc1cnc(NC(=O)c2ccnn3cc(-c4cccc(F)c4)nc23)s1 [Compound 5] | C (EC1.5>25 μM) | B (Fold Activation<350%) | C (EC1.5>25 μM) | B (Fold Activation<350%)
2 | O=C(Nc1nccs1)c1ccnn2cc(-c3ccccc3C(F)(F)F)nc12 [Compound 13] | A (EC1.5<1 μM) | B (Fold Activation<350%) | A (EC1.5<1 μM) | B (Fold Activation<350%)
3 | Cc1cnc(NC(=O)c2ccnn3cc(-c4ccccc4C(F)(F)F)nc23)s1 [Compound 14] | A (EC1.5<1 μM) | B (Fold Activation<350%) | C (EC1.5>25 μM) | B (Fold Activation<350%)
4 | O=C(Nc1cccc(N2CCOCC2)n1)c1ccnn2cc(-c3ccccc3C(F)(F)F)nc12 [Compound 16] | A (EC1.5<1 μM) | A (Fold activation≧350%) | C (EC1.5>25 μM) | B (Fold Activation<350%)
5 | O=C(Nc1nccs1)c1ccnn2cc(-c3cccc(C(F)(F)F)c3)nc12 [Compound 17] | C (EC1.5>25 μM) | B (Fold Activation<350%) | C (EC1.5>25 μM) | B (Fold Activation<350%)
6 | Cc1cnc(NC(=O)c2ccnn3cc(-c4cccc(C(F)(F)F)c4)nc23)s1 [Compound 18] | C (EC1.5>25 μM) | B (Fold Activation<350%) | C (EC1.5>25 μM) | B (Fold Activation<350%)
7 | O=C(Nc1nccs1)c1ccnn2cc(-c3cccc(Cl)c3)nc12 [Compound 21] | C (EC1.5>25 μM) | B (Fold Activation<350%) | C (EC1.5>25 μM) | B (Fold Activation<350%)
8 | O=C(Nc1ccccn1)c1cc(N2CCOCC2)nn2cc(-c3cccc(F)c3)nc12 [Compound 27] | C (EC1.5>25 μM) | B (Fold Activation<350%) | C (EC1.5>25 μM) | B (Fold Activation<350%)
9 | O=C(Nc1cccnc1)c1cc(N2CCOCC2)nn2cc(-c3cccc(F)c3)nc12 [Compound 28] | C (EC1.5>25 μM) | B (Fold Activation<350%) | C (EC1.5>25 μM) | B (Fold Activation<350%)
10 | O=C(Nc1ccncc1)c1cc(N2CCOCC2)nn2cc(-c3cccc(F)c3)nc12 [Compound 29] | C (EC1.5>25 μM) | B (Fold Activation<350%) | C (EC1.5>25 μM) | B (Fold Activation<350%)
11 | O=C(Nc1nccs1)c1cc(N2CCOCC2)nn2cc(-c3cccc(Cl)c3)nc12 [Compound 30] | C (EC1.5>25 μM) | B (Fold Activation<350%) | C (EC1.5>25 μM) | B (Fold Activation<350%)
12 | O=C(Nc1ccccn1)c1cc(N2CCOCC2)nn2cc(-c3cccc(Cl)c3)nc12 [Compound 32] | C (EC1.5>25 μM) | B (Fold Activation<350%) | C (EC1.5>25 μM) | B (Fold Activation<350%)
13 | O=C(Nc1cccnc1)c1cc(N2CCOCC2)nn2cc(-c3cccc(Cl)c3)nc12 [Compound 33] | C (EC1.5>25 μM) | B (Fold Activation<350%) | C (EC1.5>25 μM) | B (Fold Activation<350%)
14 | O=C(Nc1ccccn1)c1cc(N2CCOCC2)nn2cc(-c3ccccc3Cl)nc12 [Compound 36] | C (EC1.5>25 μM) | B (Fold Activation<350%) | C (EC1.5>25 μM) | B (Fold Activation<350%)
15 | O=C(Nc1nccs1)c1cc(N2CCOCC2)nn2cc(-c3ccccc3F)nc12 [Compound 37] | C (EC1.5>25 μM) | B (Fold Activation<350%) | C (EC1.5>25 μM) | B (Fold Activation<350%)
16 | O=C(Nc1ccccn1)c1cc(N2CCOCC2)nn2cc(-c3ccccc3F)nc12 [Compound 39] | C (EC1.5>25 μM) | B (Fold Activation<350%) | C (EC1.5>25 μM) | B (Fold Activation<350%)
